For the assay, the system named is 885512-296-R-J2-PDC complex spheroid viability. Description: Anticancer human tumor 885512-296-R-J2-PDC patient-derived breast carcinoma cell line growth inhibition [GQUAD]. The note with it: for viability, T/C: stronger effect = lower value. An excerpt:
DNA G-quadruplex Stabilizer Agents in Combinations in Complex Spheroids
A high-throughput screen of multi-cell type tumor spheroids was designed to identify active combinations of DNA G-quadruplex stabilizer agents and targeted small molecules. Complex spheroids include a stromal component modeled by human endothelial cells (HUVEC) and fibroblasts modeled by human mesenchymal stem cells (MSCs). The concentration ranges selected for each drug and investigational agent were based upon clinically achievable concentrations if the clinical Cmax of the agent was known.
Compounds. The drugs and investigational agents: pidnarulex (CX-5461; NSC782164), APTO-253 (NSC789042), BRACO-19 (NSC847499), peposertib (NSC802822), ceralasertib (NSC780249), elimusertib (NSC800525), camonsertib (NSC841442), AZD-1390 (NSC803789), olaparib (NSC753686), talazoparib (NSC767125), ART-558 (NSC835418), sotorasib (NSC818433), MRTX-1133 (NSC836407), SN-38 (NSC673596), topotecan (NSC609699), etoposide (NSC141540), doxorubicin (NSC123127), gemcitabine (NSC613327), 5-fluorouracil (NSC19893), paclitaxel (NSC125973), vemurafenib (NSC761431), panobinostat (NSC761190), R-306465 (JNJ-16241199; NSC773264), adavosertib (NSC754352), TP-3654 (NSC805149), carboplatin (NSC241240), KSQ-4279 (NSC840948), and staurosporine (NSC755774) were obtained from the National Cancer Institute (NCI) Developmental Therapeutics Program Chemical Repository (34). The FDA-approved anticancer drug set is available from the NCI Developmental Therapeutics Program. […] The stock solutions were prepared in dimethyl sulfoxide (DMSO, Sigma-Aldrich, St. Louis, MO, cat. D2650) at 800-fold the tested concentration and stored at -70 degrees C prior to their use. All drugs and investigational agents were tested over a range starting from a high concentration at or near the clinical Cmax and decreasing in half-log increments. If the clinical Cmax for an agent had not been determined, the highest concentration tested was 10 microM.
2.3 Cell Culture. All cells were maintained in an incubator at 37 degrees C and 5% CO2 with 95% humidity. The PDC lines were cultured according to standard operating procedures established by the NCI PDMR. All PDCs were thawed and cultured in Matrigel-coated flasks prepared with a working solution of 1X Ham's F-12 nutrient mix, without supplementation (Invitrogen, cat. 11765054), 100 U/mL penicillin-streptomycin (Invitrogen, cat. 15140122), and 2.5% Matrigel (Corning Inc., cat. 354248) for the first three passages. The 857933-349-R-J2-PDC line was cultured in 6C/Colon 1B media, which includes advanced DMEM/F-12 (Thermo Fisher Scientific, cat. 12634028), 10 mM HEPES (Thermo Fisher Scientific, cat. 15630080), 1X GlutaMAX supplement (Thermo Fisher Scientific, cat. 35050061), 0.1 mg/mL primocin (InvivoGen, cat. ant-pm-2), 10% defined fetal bovine serum, heat inactivated (HyClone Laboratories Inc., cat. SH30070.03HI), 50% L-WRN conditioned media (ATCC, cat. CRL-3276), 1.25 mM N-Acetyl-L-cysteine (Sigma-Aldrich, cat. A9165), 10 mM nicotinamide (Sigma-Aldrich, cat. N0636), 1X B-27 supplement (Thermo Fisher Scientific, cat. 17504044), 1X N-2 supplement (Thermo Fisher Scientific, cat. 17502048), 10 microM Y-27632 dihydrochloride (Tocris Bioscience, cat. 1254), and 50 ng/mL human EGF recombinant protein (Thermo Fisher Scientific, cat. PHG0311). The 485176-168-R4-J1-PDC line was cultured in Panc media, which includes all 6C/Colon 1B media components plus 100 ng/mL human FGF-10 (Thermo Fisher Scientific, cat. 100-26), 500 nM SB-431542 (Selleckchem, cat. S1067), and gastrin (Tocris, cat. 3006).
[…]

[1] abbreviates: curve of first compound, second compound 0.0316 µM.
Setting [2] is: curve of first compound, second compound 0.1 µM.
Setting [3] is: curve of first compound, second compound 0.316 µM.
[4] abbreviates: curve of first compound, second compound 1 µM.
[5] abbreviates: curve of first compound, second compound 3.16 µM.
Setting [6] is: curve of first compound, second compound 10 µM.
[7] abbreviates: second compound 0.0316 µM, first compound 0.0316 µM.
Where [8] appears, read: second compound 0.0316 µM, first compound 0.1 µM.
Setting [9] is: second compound 0.0316 µM, first compound 0.316 µM.
Setting [10] is: second compound 0.0316 µM, first compound 1 µM.
Where [11] appears, read: second compound 0.0316 µM, first compound 3.16 µM.
Setting [12] is: second compound 0.0316 µM, first compound 10 µM.
Setting [13] is: second compound 0.1 µM, first compound 0.0316 µM.
The mark [14] stands for this setting: second compound 0.1 µM, first compound 0.1 µM.
Where [15] appears, read: second compound 0.1 µM, first compound 0.316 µM.
The mark [16] stands for this setting: second compound 0.1 µM, first compound 1 µM.
The mark [17] stands for this setting: second compound 0.1 µM, first compound 3.16 µM.
Where [18] appears, read: second compound 0.1 µM, first compound 10 µM.
[19] abbreviates: second compound 0.316 µM, first compound 0.0316 µM.
The mark [20] stands for this setting: second compound 0.316 µM, first compound 0.1 µM.
[21] abbreviates: second compound 0.316 µM, first compound 0.316 µM.
Setting [22] is: second compound 0.316 µM, first compound 1 µM.
[23] abbreviates: second compound 0.316 µM, first compound 3.16 µM.
The mark [24] stands for this setting: second compound 0.316 µM, first compound 10 µM.
The mark [25] stands for this setting: second compound 1 µM, first compound 0.0316 µM.
Where [26] appears, read: second compound 1 µM, first compound 0.1 µM.
[27] abbreviates: second compound 1 µM, first compound 0.316 µM.
Where [28] appears, read: second compound 1 µM, first compound 1 µM.
Setting [29] is: second compound 1 µM, first compound 3.16 µM.
Setting [30] is: second compound 1 µM, first compound 10 µM.
Setting [31] is: second compound 3.16 µM, first compound 0.0316 µM.
The mark [32] stands for this setting: second compound 3.16 µM, first compound 0.1 µM.
Setting [33] is: second compound 3.16 µM, first compound 0.316 µM.
Where [34] appears, read: second compound 3.16 µM, first compound 1 µM.
[35] abbreviates: second compound 3.16 µM, first compound 3.16 µM.
Where [36] appears, read: second compound 3.16 µM, first compound 10 µM.
Setting [37] is: second compound 10 µM, first compound 0.0316 µM.
Where [38] appears, read: second compound 10 µM, first compound 0.1 µM.
Where [39] appears, read: second compound 10 µM, first compound 0.316 µM.
[40] abbreviates: second compound 10 µM, first compound 1 µM.
Where [41] appears, read: second compound 10 µM, first compound 3.16 µM.
Where [42] appears, read: second compound 10 µM, first compound 10 µM.

Where “and” joins values, the source holds several entries; their conditions need not be identical. Equal values may be shown once. Where only a bound is given, the exact number is not on record here.
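Also: spheroids exposed to the compounds for one week.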
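For viability, T/C in this document: percent of tumor spheroid viability relative to DMSO vehicle control wells.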

A word on the viability, T/C: it is the result in the treated group divided by that in the control group, in per cent. The term IC50 denotes the midpoint of a concentration-inhibition curve. For `Nc1ccn(C2OC(CO)C(O)C2(F)F)c(=O)n1` (stereo unspecified), the viability, T/C runs as follows: (compound 0.0316 µM) 14.6% and 8.23% and 13.1%; (compound 0.1 µM) 4.17% and 2.77% and 2.12%; (compound 0.316 µM) 2.96% and 2.39% and 3.6%; (compound 1 µM) 3.23% and 3.33% and 3.21%; (compound 3.16 µM) 4.11% and 2.94% and 3.73%; (compound 10 µM) 3.17% and 3.4% and 3.47%. Moreover, the concentration for half-maximal inhibition (IC50) (curve of compound) was < 31.6 nM.

For the compound `C#Cc1c(F)ccc2cc(O)cc(-c3ncc4c(N5CC6CCC(C5)N6)nc(OCC56CCCN5CC(F)C6)nc4c3F)c12` (stereo unspecified), the viability, T/C (compound 0.0316 µM) is 107% and 90.4% and 97.3%; the viability, T/C (compound 0.1 µM) was 97.7% and 92% and 97.9%; the viability, T/C (compound 0.316 µM) is 109% and 86.7% and 97.7%; the viability, T/C (compound 1 µM) is 90.1% and 70.5% and 98.3%; the viability, T/C (compound 3.16 µM) is 106% and 14% and 100%; the viability, T/C (compound 10 µM) is 83.4% and 22.4% and 90.7%. The IC50 (curve of compound) is > 10000 nM and 1570 nM.

As to `CC1COCCN1c1cc(C2(S(C)(=N)=O)CC2)nc(-c2ccnc3[nH]ccc23)n1` (stereo unspecified) + Cc1cnc(CNC(=O)c2c(=O)c3ccc(N4CCCN(C)CC4)nc3n3c2sc2ccccc23)cn1, the half-inhibitory concentration (IC50) is 367 nM under setting [1]; 92.8 nM under setting [2]; < 31.6 nM under setting [3]; < 31.6 nM under setting [4]; < 31.6 nM under setting [5]; < 31.6 nM under setting [6]. In addition, the viability, T/C was 73.9% under setting [7]; 66.2% under setting [8]; 55.8% under setting [9]; 15.9% under setting [10]; 4.2% under setting [11]; 3.7% under setting [12]. Besides, the viability, T/C runs as follows: under setting [13], 63.4%; under setting [14], 47.5%; under setting [15], 31.3%; under setting [16], 11.4%; under setting [17], 5.24%; under setting [18], 3.6%. In addition, the viability, T/C runs as follows: under setting [19], 25.2%; under setting [20], 19.2%; under setting [21], 19.4%; under setting [22], 8.96%; under setting [23], 4.98%; under setting [24], 4.66%. Further, the viability, T/C was 19.8% under setting [25]; 20.2% under setting [26]; 17.1% under setting [27]; 8.13% under setting [28]; 4.36% under setting [29]; 4.77% under setting [30]. Besides, the viability, T/C runs as follows: under setting [31], 25.1%; under setting [32], 18.4%; under setting [33], 17%; under setting [34], 4.84%; under setting [35], 3.04%; under setting [36], 3.44%. Further, the viability, T/C by setting is: under setting [37], 0.12%; under setting [38], 0.18%; under setting [39], 0.22%; under setting [40], 0.19%; under setting [41], 0.24%; under setting [42], 0.23%.

`C=CCn1c(=O)c2cnc(Nc3ccc(N4CCN(C)CC4)cc3)nc2n1-c1cccc(C(C)(C)O)n1`: the viability, T/C is 94.9% and 110% and 103% (compound 0.0316 µM); 92.2% and 91.9% and 92.6% (compound 0.1 µM); 99.1% and 52.3% and 57.8% (compound 0.316 µM); 125% and 7.26% and 11% (compound 1 µM).

In the case of `CC(=O)O[C@H]1C(=O)[C@@]2(C)[C@H]([C@H](OC(=O)c3ccccc3)[C@]3(O)C[C@H](OC(=O)[C@H](O)[C@@H](NC(=O)c4ccccc4)c4ccccc4)C(C)=C1C3(C)C)[C@]1(OC(C)=O)CO[C@@H]1C[C@@H]2O` + Cc1cnc(CNC(=O)c2c(=O)c3ccc(N4CCCN(C)CC4)nc3n3c2sc2ccccc23)cn1, the IC50 reads like this: under setting [1], < 31.6 nM; under setting [2], < 31.6 nM; under setting [3], < 31.6 nM; under setting [4], < 31.6 nM; under setting [5], < 31.6 nM; under setting [6], < 31.6 nM. Also, the viability, T/C by setting is: under setting [7], 11.1%; under setting [8], 3.65%; under setting [9], 3.53%; under setting [10], 4.58%; under setting [11], 3.52%; under setting [12], 3.97%. Besides, the viability, T/C by setting is: under setting [13], 7.92%; under setting [14], 4.41%; under setting [15], 6.02%; under setting [16], 4.78%; under setting [17], 4.71%; under setting [18], 4.43%. In addition, the viability, T/C was 7.35% under setting [19]; 6.45% under setting [20]; 5.89% under setting [21]; 7.32% under setting [22]; 6.29% under setting [23]; 6.52% under setting [24]. Also, the viability, T/C was 7.81% under setting [25]; 6.34% under setting [26]; 5.06% under setting [27]; 7.14% under setting [28]; 6.19% under setting [29]; 7.74% under setting [30]. The viability, T/C was 12.7% under setting [31]; 0.54% under setting [32]; 0.25% under setting [33]; 0.47% under setting [34]; 0.25% under setting [35]; 0.18% under setting [36]. The viability, T/C is 0.12% under setting [37]; 0.14% under setting [38]; 0.14% under setting [39]; 0.12% under setting [40]; 0.15% under setting [41]; 0.16% under setting [42].

Consider `CCCS(=O)(=O)Nc1ccc(F)c(C(=O)c2c[nH]c3ncc(-c4ccc(Cl)cc4)cc23)c1F`, for which the viability, T/C runs as follows: (compound 0.0316 µM) 115% (2×) and 92.5%; (compound 0.1 µM) 103% and 94.5% and 95.3%; (compound 0.316 µM) 68.9% and 106% and 108%; (compound 1 µM) 8.17% and 109% and 104%.

Values taken from PubChem BioAssay AID2060490 (Molecular Pharmacology Branch, DTP, NCI, 2025).
